According to US9011853B2, “B7-H4 fusion proteins and methods of use thereof” (Amplimmune, Inc., priority 2009, dated 2015):

Key:
[1] = system: CD4^+CD62L^+ naïve T cells; experiment: In vitro Th17 polarization: proliferation and cytokine production; format: cell-based, mouse; settings: 0, 0.1, 1 or 10 μg/mL in solution
Protocol: Mouse splenocytes were first removed isolated from DO11.10 mice, which express an MHC class II restricted T cell receptor specific for OVA323-339. Mouse CD4^+ T cells were purified using a Miltenyi CD4^+ T cell negative isolation kit (Cat#130-090-860). Naïve CD4^+ T cells were further purified using the Miltenyi anti-CD62L positive selection magnetic beads (cat#130-049-701).
CD4^+ CD62L^+ naïve T cells with or without CD25^+ T cells were cultured in serum free HL-1 media in the presence of rTGF-β (10 ng/mL), IL-6 (50 ng/mL), IL-23 (4 ng/mL), anti-IL-4 (1 μg/mL), anti-IFN-γ (1 μg/mL) and anti-IL-2 (1 μg/mL). To provide murine B7-H4-Ig in an immobilized format, 96-well flat bottom plates were first coated with murine B7-H4-Ig, 100 μl per well at 1 μg/mL, and incubated at 37° C. for 2 hours. […] For non-specific antigen activation, Mouse CD3/CD28 T Cell Expander beads (Dynabeads®; Invitrogen, Cat#11452D) was added into each well, at a 1:1 cell to bead ratio. […]
[^3H]-Thymidine (1 μCi/well) was added into each well 24 hr post co-incubation. Proliferation was determined by uptake of [^3H]-thymidine detected at 48 hr post [^3H]-thymidine addition using a Topcount Microplate Scintillation Counter (Packard Instruments, Meridan, Conn.). Results are expressed as the mean of triplicate cultures±SEM. […]

SJL mice = experiment: Delayed-type hypersensitivity (DTH) responses, 24 hr ear swelling assay in R-EAE mice; format: in vivo, mouse; settings: given from Day 0, 5 injections, both 3 mg/kg (60 μg) and 15 mg/kg (300 μg); ear challenge Day 10 (FIG. 39)
Protocol: DTH responses were quantitated using a 24 hr ear swelling assay as previously described. Pre-challenge ear thickness was determined using a Mitutoyo model 7326 engineer's micrometer (Schlesinger's Tools, Brooklyn, N.Y.). Immediately thereafter, DTH responses were elicited by injecting 10 μg of peptide in 10 μL of PBS into the dorsal surface of the ear using a 100 μL Hamilton syringe fitted with a 30 gauge needle. The increase in ear thickness over pre-challenge measurements was determined 24 hr after ear challenge. Results are expressed in units of 10^−4 inches±SEM. […] Significance of ear swelling in murine B7-H4-Ig treated mice over Control IgG injected mice was assessed by the Student's t test.
To determine the effect of B7-H4-Ig on blocking CD4^+ T cell mediated activity specific for the primary myelin-derived epitope PLP139-151 and epitope spreading, peptide-specific responses in vivo via DTH on all 4 treatment groups were analyzed. Mice were ear challenged with 10 μg of the indicated peptides on Day 50, and swelling was measured 24 h later.
To clarify the effect of B7-H4-Ig on the EAE acute phase, a 2nd in vivo experiment was conducted in the PLP139-151 induced MAE model. […] Mice were ear challenged with 10 μg of PLP139-151 on Day 10, and swelling was measured 24 h later. […]

| Substance | IL-17 production in Th17 cells ([1]; anti-CD3/CD28 beads (FIG. 28)) | murine Th17 proliferation ([1]; anti-CD3/CD28 beads, dose dependent (FIG. 26)) | DTH response to PLP139-151 peptide versus OVA323-339 peptide (SJL mice) |
| --- | --- | --- | --- |
| Human B7-H4-Ig: human B7-H4 extracellular domain fused to hinge, CH2 and CH3 regions of human immunoglobulin Cγ1 chain; representative SEQ ID NOs:114-137 | reduced | blocked murine Th1/Th17 proliferation | – |
| B7-H4-Ig: B7-H4 extracellular domain fused to Ig Fc; bare label is the human protein in Example 3, murine protein in Examples 1, 2, 5, 7-11 | – | – | significantly inhibited |
